Reference: US20040002080A1, “Primers for use in detecting beta-lactamases” (priority 2001, published 2004)
Values after ≈ are worked out from the molar mass of the structure shown. Read-outs that look alike come from different tables or passages of the source.

Tests used:
[1] = tested on: S. enterica serotype typhimurium isolate; test: Antibiotic susceptibility testing (microdilution MIC, VITEK, NCCLS disk diffusion); format: cell-based, Salmonella enterica serotype Typhimurium
K. pneumoniae strain 249 = test: Overnight microdilution susceptibility test (MicroScan panels, NCCLS criteria); format: cell-based; conditions: Klebsiella pneumoniae, K. pneumoniae 249, combinations as drug/clavulanate, read-out: Minimum Inhibitory Concentrations (MICs)
Protocol: Susceptibility tests were performed on K. pneumoniae 249 by an overnight microdilution method with investigational dehydrated panels provided by Dade Behring MicroScan (Sacramento, Calif.) according to the manufacturer's recommendations and interpreted according to National Committee for Clinical Laboratory Standards (NCCLS) criteria and by NCCLS disc diffusion (National Committee for Clinical Laboratory Standards (NCCLS), “Methods for Dilution Antimicrobial Susceptibility Tests for Bacteria that Grow Aerobically: Approved Standard M7-A4,” Villanova, Pa. (1997); and Hanson et al., J. Antimicrob. Chemother., 44(3):377-380 (September 1999)). The test was performed using an innoculum of approximately 5×10^5 colony forming units per square milliliter (cfu/mL^2). Isoelectric focusing (IEF), cefotaxime hydrolysis and inhibitor determinations in polyacrylamide gels were performed using sonic extracts of K. pneumoniae 249 (Thomson et al., Antimicrob. Agents Chemother., 35:1001-1003 (1991)).

[2] = tested on: S. enterica serotype typhimurium isolate; test: Phenotypic inhibitor-based ESBL tests (double disk potentiation with clavulanate); format: cell-based, Salmonella enterica serotype Typhimurium; conditions: for potentiation by clavulanate (ESBL tests positive): with clavulanate
Description: Susceptibility testing and β-lactamase investigations. Antibiotic susceptibilities and resistance phenotypes were investigated by microdilution MIC methodology, double disk potentiation, VITEK (card GNS-424, bioMérieux, Inc. St. Louis, Mo.), NCCLS disk diffusion, and the three dimensional test (Thomson et al., Antimicrob. Agents Chemother., 35(5):1001-1003 (May 1991); and Thomson et al., Antimicrob. Agents Chemother., 36(9):1877-1882 (September 1992)).

[3] = molecular target: T1, beta-lactamase band of isoelectric point 9.1 (AmpC enzyme) of K. pneumoniae 249 (Klebsiella pneumoniae, UniProt Q48434); test: Isoelectric focusing, cefotaxime hydrolysis and inhibitor determinations in polyacrylamide gels, sonic extracts; format: biochemical; conditions: sonic extracts of K. pneumoniae 249, polyacrylamide gel; for inhibition of the band of isoelectric point 9.1: inhibitor 1000 mM
T1 construct: performed using sonic extracts of K. pneumoniae 249; endogenous in cells; host or cells: Klebsiella pneumoniae strain 249 (clinical urine isolate), sonic extract
Protocol: The test was performed using an innoculum of approximately 5×10^5 colony forming units per square milliliter (cfu/mL^2).
The cefoxitin, ceftriaxone/clavulanate and ceftazidime/clavulanate MICs indicated two possible mechanisms of resistance, the expression of a plasmid-mediated ampC gene and/or a porin mutation. […] Three beta-lactamases were identified with isoelectric points of 5.4, 7.6, and 9.1. The band that focused at isoelectric point 9.1 hydrolyzed cefotaxime and was inhibited by cloxacillin (1000 mM), but not clavulanate (1000 mM). These findings indicated it was an AmpC enzyme.

[4] = molecular target: T2, beta-lactamase pI 7.4 (OXA-1 or OXA-30) (Escherichia coli, UniProt P13661); format: biochemical, Salmonella enterica serotype Typhimurium; conditions: isoelectric focusing, crude preparation
T2 construct: Crude beta-lactamase preparations derived from sonicated bacterial cultures of the S. typhimurium isolate; endogenous in cells; host or cells: Salmonella enterica serotype Typhimurium clinical stool isolate, sonicated culture

[5] = tested on: beta-lactamase pI 8.2 (SHV-9); test: Isoelectric focusing with general inhibitor characteristics, crude beta-lactamase preparations; format: biochemical, Salmonella enterica serotype Typhimurium; conditions: crude preparation
Protocol: (§1) Crude beta-lactamase preparations derived from sonicated bacterial cultures of the S. typhimurium isolate and strains producing reference beta-lactamases were assessed for beta-lactamase pls and general inhibitor characteristics by isoelectric focusing (Thomson et al., Antimicrob. Agents Chemother., 35(5):1001-1003 (May 1991).

[6] = tested on: beta-lactamase pI>9.0 (AmpC); test: as above; format: biochemical, Salmonella enterica serotype Typhimurium; conditions: crude preparation
Protocol: as §1

T1 sequence (Q48434 21-381): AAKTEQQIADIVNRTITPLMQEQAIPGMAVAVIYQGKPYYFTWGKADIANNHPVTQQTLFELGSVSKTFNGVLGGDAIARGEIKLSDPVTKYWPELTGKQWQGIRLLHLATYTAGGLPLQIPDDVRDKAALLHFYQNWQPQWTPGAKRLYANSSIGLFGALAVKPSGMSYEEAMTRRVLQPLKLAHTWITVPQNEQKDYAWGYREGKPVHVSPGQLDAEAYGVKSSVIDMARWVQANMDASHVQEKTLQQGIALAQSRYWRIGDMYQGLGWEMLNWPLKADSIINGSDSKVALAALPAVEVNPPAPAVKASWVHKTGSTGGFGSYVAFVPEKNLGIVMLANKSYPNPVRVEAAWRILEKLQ
T2 sequence (P13661 26-276): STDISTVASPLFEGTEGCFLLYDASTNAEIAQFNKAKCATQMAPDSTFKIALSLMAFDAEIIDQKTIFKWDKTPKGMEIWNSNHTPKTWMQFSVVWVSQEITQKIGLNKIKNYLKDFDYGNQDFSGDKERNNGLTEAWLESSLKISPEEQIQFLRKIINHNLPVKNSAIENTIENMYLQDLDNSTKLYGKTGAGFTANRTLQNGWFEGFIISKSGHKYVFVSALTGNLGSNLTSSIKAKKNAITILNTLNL

Row | Compound | MIC ([1]; Table 2) | MIC (K. pneumoniae strain 249) [µg/mL] | susceptibility category (susceptible / intermediate / resistant) [1] | also measured
1 | NCC[C@H](O)C(=O)N[C@@H]1C[C@H](N)[C@@H](O[C@H]2O[C@H](CN)[C@@H](O)[C@H](O)[C@H]2O)[C@H](O)[C@H]1O[C@H]1O[C@H](CO)[C@@H](O)[C@H](N)[C@H]1O [Amikacin] | > 64 µg/mL |  |  | 
2 | CC1(C)S[C@@H]2[C@H](NC(=O)[C@H](N)c3ccccc3)C(=O)N2[C@H]1C(=O)O [Ampicillin] | > 256 µg/mL | > 16 |  | 
3 | C=CC1=C(C(=O)O)N2C(=O)[C@@H](NC(=O)/C(=N\OCC(=O)O)c3csc(N)n3)[C@H]2SC1 [Cefixime] | > 128 µg/mL |  |  | 
4 | CC=CC1=C(C(=O)O)N2C(=O)[C@@H](NC(=O)[C@H](N)c3ccc(O)cc3)[C@H]2SC1 [Cefprozil] | > 128 µg/mL |  |  | 
5 | CC(C)(O/N=C(\C(=O)N[C@@H]1C(=O)N2C(C(=O)[O-])=C(C[n+]3ccccc3)CS[C@H]12)c1csc(N)n1)C(=O)O [Ceftazidime] | > 32 µg/mL | 16 | resistance | 
6 | CO/N=C(\C(=O)N[C@@H]1C(=O)N2C(C(=O)O)=C(CSc3nc(=O)c(=O)[nH]n3C)CS[C@H]12)c1csc(N)n1 [Ceftriaxone] | > 128 µg/mL | 16 |  | 
7 | CO/N=C(\C(=O)N[C@@H]1C(=O)N2C(C(=O)O)=C(COC(N)=O)CS[C@H]12)c1ccco1 [Cefuroxime] | > 256 µg/mL |  |  | 
8 | CC(=O)OCC1=C(C(=O)O)N2C(=O)[C@@H](NC(=O)Cc3cccs3)[C@H]2SC1 [Cephalothin] | > 32 µg/mL | > 16 |  | 
9 | O=C(N[C@H](CO)[C@H](O)c1ccc([N+](=O)[O-])cc1)C(Cl)Cl [Chloramphenicol] | > 256 µg/mL |  | resistant | 
10 | O=C(O)c1cn(C2CC2)c2cc(N3CCNCC3)c(F)cc2c1=O [Ciprofloxacin] |  |  | susceptible | 
11 | C[C@@H](O)[C@H]1C(=O)N2C(C(=O)O)=C([C@H]3CCCO3)S[C@H]12 [Faropenem] | 2 µg/mL (≈ 7.01 µM) |  |  | MIC ([1]; Salmonella enterica, read-out: MIC): 2 µg/mL (≈ 7.01 µM)
12 | C[C@@H](O)[C@H]1C(=O)N2C(C(=O)O)=C(SCCN=CN)C[C@H]12 [Imipenem] | 0.25 µg/mL (≈ 0.835 µM) |  |  | 
13 | C[C@H]1COc2c(N3CCN(C)CC3)c(F)cc3c(=O)c(C(=O)O)cn1c23 [Levofloxacin] | 0.5 µg/mL (≈ 1.38 µM) |  |  | 
14 | C[C@@H](O)[C@H]1C(=O)N2C(C(=O)O)=C(S[C@@H]3CN[C@H](C(=O)N(C)C)C3)[C@H](C)[C@H]12 [Meropenem] | less than 2 | ≤ 0.5 | susceptible | 
15 | NC[C@H]1O[C@H](O[C@H]2[C@H](O)[C@@H](O[C@H]3O[C@H](CO)[C@@H](O)[C@H](N)[C@H]3O)[C@H](N)C[C@@H]2N)[C@H](N)C[C@@H]1O [Tobramycin] | > 16 µg/mL |  |  | 
16 | C[C@H]1[C@H](NC(=O)/C(=N\OC(C)(C)C(=O)O)c2csc(N)n2)C(=O)N1S(=O)(=O)O [aztreonam] |  |  | resistance | reversal of resistance by the addition of clavulanate ([2]; addition of clavulanate): partially reversible; potentiation by clavulanate (ESBL tests positive) [2]: potentiation
17 | CO/N=C(\C(=O)N[C@@H]1C(=O)N2C(C(=O)[O-])=C(C[N+]3(C)CCCC3)CS[C@H]12)c1csc(N)n1 [cefepime] |  | ≤ 4 | intermediate | potentiation by clavulanate (ESBL tests positive) [2]: potentiation
18 | CO/N=C(\C(=O)N[C@@H]1C(=O)N2C(C(=O)O)=C(COC(C)=O)CS[C@H]12)c1csc(N)n1 [cefotaxime] |  |  | resistance | cefotaxime hydrolysis by the band of isoelectric point 9.1 [3]: hydrolyzed
19 | CO[C@@]1(NC(=O)Cc2cccs2)C(=O)N2C(C(=O)O)=C(COC(N)=O)CS[C@@H]21 [cefoxitin] |  | > 32 | resistance | 
20 | CO/N=C(\C(=O)N[C@@H]1C(=O)N2C(C(=O)[O-])=C(C[n+]3cccc4c3CCC4)CS[C@H]12)c1csc(N)n1 [cefpirome] |  |  |  | potentiation by clavulanate (ESBL tests positive) [2]: potentiation
21 | COCC1=C(C(=O)O)N2C(=O)[C@@H](NC(=O)/C(=N\OC)c3csc(N)n3)[C@H]2SC1 [cefpodoxime] |  | > 4 |  | 
22 | O=C(O)[C@H]1/C(=C/CO)O[C@@H]2CC(=O)N21 [clavulanate] |  |  |  | inhibition of the band of isoelectric point 9.1 [3]: not; inhibition of beta-lactamase pI 7.4 [4]: inhibited; inhibition of beta-lactamase pI 8.2 [5]: inhibited; inhibition of beta-lactamase pI>9.0 [6]: not
23 | Cc1onc(-c2ccccc2Cl)c1C(=O)N[C@@H]1C(=O)N2[C@@H]1SC(C)(C)[C@@H]2C(=O)O [cloxacillin] |  |  |  | inhibition of the band of isoelectric point 9.1 [3]: inhibited; inhibition of beta-lactamase pI 7.4 [4]: not; inhibition of beta-lactamase pI>9.0 [6]: inhibited
24 | CCN1CCN(C(=O)N[C@@H](C(=O)N[C@@H]2C(=O)N3[C@@H]2SC(C)(C)[C@@H]3C(=O)O)c2ccccc2)C(=O)C1=O [piperacillin] |  | > 64 |  | 
25 | CC1(C)S[C@@H]2[C@H](NC(=O)[C@H](C(=O)O)c3ccsc3)C(=O)N2[C@H]1C(=O)O [ticarcillin] |  | > 64 |  | 
26 | Cotrimoxazole | > 320 µg/mL |  | resistant | 
27 | Gentamicin | > 16 µg/mL |  |  | 
